A word on the Emax: it is the greatest response seen or fitted, relative to the assay's reference. As usually defined, the EC50 is the concentration at which the effect is half-maximal.

The target of the assay is T1, human mAChR M4 (Homo sapiens, UniProt P08173).
T1 construct: expressed in transfected cells
T1 sequence (P08173 1-479): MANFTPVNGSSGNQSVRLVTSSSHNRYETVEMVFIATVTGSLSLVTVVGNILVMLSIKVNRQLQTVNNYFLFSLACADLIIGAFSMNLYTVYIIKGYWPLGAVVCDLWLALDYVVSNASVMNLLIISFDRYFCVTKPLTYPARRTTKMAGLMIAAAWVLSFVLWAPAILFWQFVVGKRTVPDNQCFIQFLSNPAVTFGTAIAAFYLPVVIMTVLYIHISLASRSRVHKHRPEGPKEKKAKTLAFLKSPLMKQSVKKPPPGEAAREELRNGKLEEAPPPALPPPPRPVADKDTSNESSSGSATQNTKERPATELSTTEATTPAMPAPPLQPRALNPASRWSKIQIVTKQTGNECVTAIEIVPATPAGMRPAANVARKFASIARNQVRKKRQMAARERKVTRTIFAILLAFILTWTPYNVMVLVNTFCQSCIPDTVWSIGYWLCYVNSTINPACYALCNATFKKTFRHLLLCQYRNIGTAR
Briefly: mAChR M4 cell-based functional assay (calcium mobilization, CHO-K1 hM4-Gqi5 cells). The settings on record: for Emax at 30 µM: CHO-K1, % ACh maximum at 30 μM, human M4; for EC50: increase in the EC20 acetylcholine response, CHO-K1 hM4-Gqi5 cells. An outline of the steps: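 CHO-K1 cells stably expressing human M4 with chimeric Gqi5, loaded with Fluo-4 AM; compounds given as 11-point 1:3 curves and calcium flux read on FDSS at 1 Hz. Acetylcholine EC20 added at 144 s, EC80 at 230 s; agonist, PAM (EC20 potentiation) and antagonist (EC80 inhibition) EC50/Emax from four-parameter fits.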
In general terms: Calcium assays in cells follow changes in intracellular calcium, usually with a dye or a luminescent sensor.

[1] abbreviates: positive allosteric modulator activity, read-out: Human M4 EC50.

Read-outs that look alike come from different tables or passages of the source.

Regarding `Cc1c(C(=O)NCc2ccncc2)nnc(N2CCc3ncc(C(F)(F)F)cc3C2)c1C` [Example 467, 4,5-dimethyl-N-(pyridin-4-ylmethyl)-6-(3-(trifluoromethyl)-7,8-dihydro-1,6-naphthyridin-6(5H)-yl)pyridazine-3-carboxamide], the Emax at 30 µM was found to be 98%. Also, the 50% effective concentration (EC50) under setting [1] turned out to be 129 nM.
Consider `Cc1c(C(=O)NCc2cncs2)nnc(N2CCc3ncc(C(F)(F)F)cc3C2)c1C` [Example 465, 4,5-dimethyl-N-(thiazol-5-ylmethyl)-6-(3-(trifluoromethyl)-7,8-dihydro-1,6-naphthyridin-6(5H)-yl)pyridazine-3-carboxamide], for which the maximum response (Emax) at 30 µM stood at 101%. Further, the EC50 under setting [1] turned out to be 44 nM.
On to `Cc1cc(C#N)cnc1N1CCc2ncc(C(C)(O)C(F)(F)F)cc2C1` (stereo not shown) [Example 426, 5-methyl-6-(3-(1,1,1-trifluoro-2-hydroxypropan-2-yl)-7,8-dihydro-1,6-naphthyridin-6(5H)-yl)nicotinonitrile], for which the Emax at 30 µM is 95%. The EC50 under setting [1] is 577 nM.
As for `Cc1cc(C#N)nnc1N1CCc2ncc(-c3ccc(C4CC4)nc3)cc2C1` [Example 321, 6-(3-(6-cyclopropylpyridin-3-yl)-7,8-dihydro-1,6-naphthyridin-6(5H)-yl)-5-methylpyridazine-3-carbonitrile], the maximal response (Emax) at 30 µM turned out to be 73%. The EC50 under setting [1] stood at 356 nM.
On to `Cc1ccc(F)c(Nc2cnc3c(c2)CN(c2ncc(C#N)cc2C)CC3)c1` [compound 115, 6-[3-(2-fluoro-5-methyl-anilino)-7,8-dihydro-5H-1,6-naphthyridin-6-yl]-5-methyl-pyridine-3-carbonitrile], for which the Emax at 30 µM came out at 92%. Also, the concentration giving a half-maximal response (EC50) under setting [1] was found to be 995 nM.
`Cc1nc(Cl)c(C)c(N2CCc3ncc(-c4cnn(C)c4)cc3C2)n1` [compound 92, 6-(6-chloro-2,5-dimethyl-pyrimidin-4-yl)-3-(1-methylpyrazol-4-yl)-7,8-dihydro-5H-1,6-naphthyridine]: the Emax at 30 µM was determined as 82%. Further, the EC50 under setting [1] turned out to be 218 nM.
As for `Cc1nc(Cl)nc(N2CCc3ncc(C(F)(F)F)cc3C2)c1C` [compound 253, 6-(2-chloro-5,6-dimethylpyrimidin-4-yl)-3-(trifluoromethyl)-5,6,7,8-tetrahydro-1,6-naphthyridine], the Emax at 30 µM is 94%. Besides, the EC50 under setting [1] amounted to 200 nM.
The corresponding values for `Cc1cc(C(=O)N2CC3(COC3)C2)nnc1N1CCc2ncc(N3CCCn4nccc43)cc2C1` [Example 542, (6-(3-(6,7-dihydropyrazolo[1,5-a]pyrimidin-4(5H)-yl)-7,8-dihydro-1,6-naphthyridin-6(5H)-yl)-5-methylpyridazin-3-yl)(2-oxa-6-azaspiro[3.3]heptan-6-yl)methanone] are 113% and 64 nM.
The like results for `COc1ccc(Oc2cnc3c(c2)CN(c2ncc(C#N)cc2C)CC3)cn1` [compound 182, 6-[3-[(6-methoxy-3-pyridyl)oxy]-7,8-dihydro-5H-1,6-naphthyridin-6-yl]-5-methyl-pyridine-3-carbonitrile] were, in that order, 75% and 439 nM.
The like results for `Cc1cc(C(=O)NCc2nc3ccccc3s2)cnc1N1CCc2ncccc2C1` [compound 125, N-(1,3-benzothiazol-2-ylmethyl)-6-(7,8-dihydro-5H-1,6-naphthyridin-6-yl)-5-methyl-pyridine-3-carboxamide] were, in that order, 78% and 856 nM.
As to `Cc1nc(C)c(C)c(N2CCc3ncc(-c4ccc(N5CCOCC5)nc4)cc3C2)n1` [compound 227, 4-(5-(6-(2,5,6-trimethylpyrimidin-4-yl)-5,6,7,8-tetrahydro-1,6-naphthyridin-3-yl)pyridin-2-yl)morpholine], the maximum response (Emax) at 30 µM stood at 67%. Also, under setting [1], the 50% effective concentration (EC50) stood at 266 nM.
The corresponding values for `Cc1ccncc1-c1cnc2c(c1)CN(c1nnc(C#N)c(C)c1C)CC2` [compound 55, 4,5-dimethyl-6-[3-(4-methyl-3-pyridyl)-7,8-dihydro-5H-1,6-naphthyridin-6-yl]pyridazine-3-carbonitrile] are 76% and 195 nM.
The corresponding values for `Cc1cc(C(=O)NC2(c3cccnc3)CC2)nnc1N1CCc2ncc(CC(F)(F)F)cc2C1` [Example 585, 5-methyl-N-(1-(pyridin-3-yl)cyclopropyl)-6-(3-(2,2,2-trifluoroethyl)-7,8-dihydro-1,6-naphthyridin-6(5H)-yl)pyridazine-3-carboxamide] are 96% and 482 nM.
The like results for `Cc1cc(C(=O)NCc2ccncc2)cnc1N1CCc2ncc(-c3ccc(C4CC4)nc3)cc2C1` [Example 483, 6-(3-(6-cyclopropylpyridin-3-yl)-7,8-dihydro-1,6-naphthyridin-6(5H)-yl)-5-methyl-N-(pyridin-4-ylmethyl)nicotinamide] were, in that order, 84% and 313 nM.
As to `Cc1cc2n(n1)CCCN2c1cnc2c(c1)CN(c1ncc(C#N)cc1C)CC2` [Example 385, 5-methyl-6-(3-(2-methyl-6,7-dihydropyrazolo[1,5-a]pyrimidin-4(5H)-yl)-7,8-dihydro-1,6-naphthyridin-6(5H)-yl)nicotinonitrile], the Emax at 30 µM was 103%. In addition, under setting [1], the 50% effective concentration (EC50) was 40 nM.
Turning to `Cc1cc(C#N)cnc1N1CCc2ncc(C3CC3)cc2C1` [Example 330, 6-(3-cyclopropyl-7,8-dihydro-1,6-naphthyridin-6(5H)-yl)-5-methylnicotinonitrile], the Emax (CHO-K1) came to 85%. The EC50 (Human M4 EC50, positive allosteric modulator activity) worked out at 71 nM.
Regarding `Cc1cc(C(=O)N2CCC2C)nnc1N1CCc2ncc(N3CCCn4nccc43)cc2C1` (stereo not shown) [Example 550, (6-(3-(6,7-dihydropyrazolo[1,5-a]pyrimidin-4(5H)-yl)-7,8-dihydro-1,6-naphthyridin-6(5H)-yl)-5-methylpyridazin-3-yl)(2-methylazetidin-1-yl)methanone], the Emax at 30 µM stood at 111%. For the same molecule, the half-maximal effective concentration (EC50) under setting [1] worked out at 86 nM.
As to `Cc1cc(C(=O)NC2(C#N)CC2)nnc1N1CCc2ncc(N3CCCn4nccc43)cc2C1` [Example 525, N-(1-cyanocyclopropyl)-6-(3-(6,7-dihydropyrazolo[1,5-a]pyrimidin-4(5H)-yl)-7,8-dihydro-1,6-naphthyridin-6(5H)-yl)-5-methylpyridazine-3-carboxamide], the Emax at 30 µM is 82%. Further, the EC50 under setting [1] amounted to 11 nM.
For `Cc1nc(C)c(C)c(N2CCc3ncc(-c4ccc(-n5ccnc5)nc4)cc3C2)n1` [compound 232, 3-(6-(1H-imidazol-1-yl)pyridin-3-yl)-6-(2,5,6-trimethylpyrimidin-4-yl)-5,6,7,8-tetrahydro-1,6-naphthyridine], the maximum response (Emax) at 30 µM was 61%. Moreover, the concentration giving a half-maximal response (EC50) under setting [1] was found to be 263 nM.
The like results for `Cc1c(C#N)nnc(N2CCc3ncc(C4CC4)cc3C2)c1C` [Example 317, 6-(3-cyclopropyl-7,8-dihydro-1,6-naphthyridin-6(5H)-yl)-4,5-dimethylpyridazine-3-carbonitrile] were, in that order, 85% and 98 nM.
With `Cc1cc(C(=O)NC2(C#N)CC2)nnc1N1CCc2ncc(C(F)(F)F)cc2C1` [Example 523, N-(1-cyanocyclopropyl)-5-methyl-6-(3-(trifluoromethyl)-7,8-dihydro-1,6-naphthyridin-6(5H)-yl)pyridazine-3-carboxamide], the Emax at 30 µM was found to be 109%. In addition, the EC50 under setting [1] came to 74 nM.
Take `Cc1cc(C(=O)NCc2ccncc2)cnc1N1CCc2ncc(Nc3ccnn3C)cc2C1` [Example 473, 5-methyl-6-(3-((1-methyl-1H-pyrazol-5-yl)amino)-7,8-dihydro-1,6-naphthyridin-6(5H)-yl)-N-(pyridin-4-ylmethyl)nicotinamide]: the maximum response (Emax) at 30 µM was 87%. The EC50 under setting [1] stood at 324 nM.
Take `Cc1c(Cl)nc(C2CC2)nc1N1CCc2ncc(Nc3cccc(F)c3F)cc2C1` [compound 91, 6-(6-chloro-2-cyclopropyl-5-methyl-pyrimidin-4-yl)-N-(2,3-difluorophenyl)-7,8-dihydro-5H-1,6-naphthyridin-3-amine]: the Emax at 30 µM amounted to 67%. Further, the EC50 under setting [1] came out at 5570 nM.
As to `Cc1cc(C#N)cnc1N1CCc2ncc(-n3nccc3C)cc2C1` [Example 345, 5-methyl-6-(3-(5-methyl-1H-pyrazol-1-yl)-7,8-dihydro-1,6-naphthyridin-6(5H)-yl)nicotinonitrile], the Emax at 30 µM amounted to 86%. Further, the EC50 under setting [1] worked out at 341 nM.
`Cc1cc(C#N)cnc1N1CCc2ncc(-c3cnn(CC4CC4)c3)cc2C1` [compound 102, 6-[3-[1-(cyclopropylmethyl)pyrazol-4-yl]-7,8-dihydro-5H-1,6-naphthyridin-6-yl]-5-methyl-pyridine-3-carbonitrile]: the Emax at 30 µM was determined as 86%. Moreover, under setting [1], the EC50 stood at 362 nM.
On to `Cc1cc(C#N)cnc1N1CCc2ncc(-c3ccc(C4CC4)nc3)cc2C1` [compound 186, 6-[3-(6-cyclopropyl-3-pyridyl)-7,8-dihydro-5H-1,6-naphthyridin-6-yl]-5-methyl-pyridine-3-carbonitrile], for which the Emax at 30 µM worked out at 97%. The concentration giving a half-maximal response (EC50) under setting [1] was found to be 318 nM.

The record behind these values is patent US20250230155A1 (Vanderbilt University, priority 2021, published 2025).
